Measurements: patent US20040121946A9, “Inducing cellular immune responses to her2/neu using peptide and nucleic acid compositions” (priority 2002, published 2004)
pIC50: −log10 of the molar value. Like-named read-outs stand apart in the source and are kept apart here. Where a SMILES comes first, the peptide text is derived from it. Where no end group is shown, it is not given here. [ ]: non-standard residue; d: D form. Abu = CC[C@H](N)C(=O)O

How the values were obtained:
[1] = target: HLA-A*0201 (Homo sapiens, UniProt P04439, D140Y/D185E/D98H/E176V/E277Q/G131W/G231S/I119V/I121R/I166T/I218V/L300P/L318F/N151K/N90K/P208A/P217A/Q86G/Q94H/R138H/R169H/T345S); type: binding
[2] = target: HLA-A*0203 (Homo sapiens, UniProt P04439, A173T/D140Y/D185E/D98H/E277Q/G131W/G231S/I119V/I121R/I166T/I218V/L180W/L300P/L318F/N151K/N90K/P208A/P217A/Q86G/Q94H/R138H/R169H/T345S); type: binding
[3] = target: HLA-A*0206 (Homo sapiens, UniProt P04439, D140Y/D185E/D98H/E176V/E277Q/F33Y/G131W/G231S/I119V/I121R/I166T/I218V/L300P/L318F/N151K/N90K/P208A/P217A/Q86G/Q94H/R138H/R169H/T345S); type: binding
[4] = system: .221A2.1 cell line, peptide-loaded target; experiment: Primary in vitro CTL induction, peptide-specific recognition (51Cr release / in situ IFNγ ELISA); type: cell-based, human; details: normal donors, peptide-pulsed targets
Method: The colon adenocarcinoma cell lines SW403 and HT-29 were obtained from the American Type Culture Collection (ATCC) (Rockville, Md.). The cell lines that were obtained from ATCC were maintained under the culture conditions recommended by the supplier. […] The colon cancer cells were treated with 100U/ml IFNγ (Genzyme) for 48 hours at 37° C. before use as targets in the ^51Cr release and in situ IFNγ assays.
The monocytes were purified by plating 10×10^6 PBMC/well in a 6-well plate. After 2 hours at 37° C., the non-adherent cells were removed by gently shaking the plates and aspirating the supernatants. The wells were washed a total of three times with 3 ml RPMI to remove most of the non-adherent and loosely adherent cells. Three ml of complete medium containing 50 ng/ml of GM-CSF and 1,000 U/ml of IL-4 were then added to each well. DC were used for CTL induction cultures following 7 days of culture.
Induction of CTL with DC and Peptide: CD8+ T-cells were isolated by positive selection with Dynal immunomagnetic beads (Dynabeads® M-450) and the detacha-bead® reagent. Typically about 200-250×10^6 PBMC were processed to obtain 24×10^6 CD8^+ T-cells (enough for a 48-well plate culture). Briefly, the PBMCs were thawed in RPMI with 30 μg/ml DNAse, washed once with PBS containing 1% human AB serum and resuspended in PBS/1% AB serum at a concentration of 20×10^6cells/ml. The magnetic beads were washed 3 times with PBS/AB serum, added to the cells (140 μl beads/20×10^6 cells) and incubated for 1 hour at 4° C. with continuous mixing. The beads and cells were washed 4× with PBS/AB serum to remove the nonadherent cells and resuspended at 100×10^6 cells/ml (based on the original cell number) in PBS/AB serum containing 100 μl/ml detacha-bead® reagent and 30 μg/ml DNAse. The mixture is incubated for 1 hour at room temperature with continuous mixing. The beads were washed again with PBS/AB/DNAse to collect the CD8+ T-cells. The DC were collected and centrifuged at 1300 rpm for 5-7 minutes, washed once with PBS with 1% BSA, counted and pulsed with 40 μg/ml of peptide at a cell concentration of 1-2×10^6/ml in the presence of 3 μg/ml β2-microglobulin for 4 hours at 20° C. The DC were then irradiated (4,200 rads), washed 1 time with medium and counted again.
Setting up induction cultures: 0.25 ml cytokine-generated DC (@1×10^5 cells/ml) were co-cultured with 0.25 ml of CD8+ T-cells (@2×10^6 cell/ml) in each well of a 48-well plate in the presence of 10 ng/ml of IL-7. rHuman IL10 was added the next day at a final concentration of 10 ng/ml and rhuman IL2 was added 48 hours later at 10 IU/ml.
Restimulation of the induction cultures with peptide-pulsed adherent cells: Seven and fourteen days after the primary induction the cells were restimulated with peptide-pulsed adherent cells. The PBMCS were thawed and washed twice with RPMI and DNAse. The cells were resuspended at 5×10^6 cells/ml and irradiated at ˜4200 rads. The PBMCs were plated at 2×10^6 in 0.5 ml complete medium per well and incubated for 2 hours at 37° C. The plates were washed twice with RPMI by tapping the plate gently to remove the nonadherent cells and the adherent cells pulsed with 10 μg/ml of peptide in the presence of 3 μg/ml β2 microglobulin in 0.25 ml RPMI/5%AB per well for 2 hours at 37° C. Peptide solution from each well was aspirated and the wells were washed once with RPMI. Most of the media was aspirated from the induction cultures (CD8+ cells) and brought to 0.5 ml with fresh media. […]

[5] = system: tumor targets that endogenously express HER2/neu (colon adenocarcinoma cell lines SW403 and HT-29); experiment: Primary in vitro CTL induction, recognition of wild-type peptide and endogenous tumor targets (51Cr release / in situ IFNγ ELISA); type: cell-based, human; details: for recognition of wild-type peptide and of tumor targets endogenously expressing HER2/neu by induced CTL: in vitro, expanded positive cultures; for CTL Tumor / CTL Wildtype: number of donors yielding a positive response/total tested, normal donors
[6] = system: peptide-pulsed target cells and transfected cells endogenously expressing the antigen; experiment: Recall CTL responses of PBMCs from ovarian cancer patients; type: cell-based, human; details: data from ovarian cancer patients
Source text: Immunogenicity was additionally confirmed using PBMCs isolated from cancer patients. Briefly, PBMCs were isolated from two patients with ovarian cancer, re-stimulated with peptide-pulsed monocytes and assayed for the ability to recognize peptide-pulsed target cells as well as transfected cells endogenously expressing the antigen.

[7] = Table XXII, A2 supermotif peptides and analogs
[8] = HLA-A2 supermotif-bearing peptides, Table XXVII

CC[C@H](NC(=O)[C@@H](NC(=O)[C@H](C)N)C(C)C)C(=O)N[C@@H](CCCNC(=N)N)C(=O)N[C@@H](Cc1c[nH]c2ccccc12)C(=O)NCC(=O)N[C@@H](CC(C)C)C(=O)N[C@@H](CC(C)C)C(=O)N[C@H](C(=O)O)C(C)C [Her2/neu.5V2B3V9] (H-AV[Abu]RWGLLV-OH)
pIC50 [1, 7]: 5.00
pIC50 [2, 7]: 6.85
pIC50 [3, 7]: 5.66

CC[C@H](C)[C@H](NC(=O)[C@H](CC(C)C)NC(=O)[C@@H](N)Cc1ccc(O)cc1)C(=O)N[C@@H](CCSC)C(=O)N[C@H](C(=O)N[C@@H](CCCCN)C(=O)N[C@@H](CS)C(=O)N[C@@H](Cc1c[nH]c2ccccc12)C(=O)N[C@@H](CCSC)C(=O)N[C@H](C(=O)O)C(C)C)C(C)C
pIC50 [1, 8]: 7.89
pIC50 ([2]; Table XXVII): 6.94
pIC50 ([3]; Table XXVII): 7.74

CC[C@H](NC(=O)[C@H](CCSC)NC(=O)[C@H](C)N)C(=O)N[C@@H](CCCNC(=N)N)C(=O)N[C@@H](Cc1c[nH]c2ccccc12)C(=O)NCC(=O)N[C@@H](CC(C)C)C(=O)N[C@@H](CC(C)C)C(=O)N[C@H](C(=O)O)C(C)C [Her2/neu.5M2B3V9] (H-AM[Abu]RWGLLV-OH)
pIC50 [1, 7]: 7.44
pIC50 [2, 7]: 7.80
pIC50 [3, 7]: 6.14

CC(C)C[C@H](NC(=O)[C@H](CO)NC(=O)CNC(=O)[C@H](Cc1ccccc1)NC(=O)[C@H](CC(C)C)NC(=O)[C@@H](N)CCCCN)C(=O)N[C@@H](C)C(=O)N[C@@H](Cc1ccccc1)C(=O)N[C@H](C(=O)O)C(C)C [Her2/neu.369L2V9]
induction of peptide-specific CTL [4]: induced peptide-specific CTLs
recognition of wild-type peptide and of tumor targets endogenously expressing HER2/neu by induced CTL [5]: also recognized the target tumor cells

CC[C@H](NC(=O)[C@@H](NC(=O)[C@H](C)N)[C@@H](C)O)C(=O)N[C@@H](CCCNC(=N)N)C(=O)N[C@@H](Cc1c[nH]c2ccccc12)C(=O)NCC(=O)N[C@@H](CC(C)C)C(=O)N[C@@H](CC(C)C)C(=O)N[C@H](C(=O)O)C(C)C [Her2/neu.5.T2B3V9] (H-AT[Abu]RWGLLV-OH)
pIC50 [1, 7]: 4.78
pIC50 [3, 7]: 5.66

H-QLMPYGCLL-OH [Her2/neu.799]
pIC50 [2, 7]: 6.94
pIC50 [3, 7]: 6.15

CC[C@H](NC(=O)[C@H](CC(C)C)NC(=O)[C@H](C)N)C(=O)N[C@@H](CCCNC(=N)N)C(=O)N[C@@H](Cc1c[nH]c2ccccc12)C(=O)NCC(=O)N[C@@H](CC(C)C)C(=O)N[C@@H](CC(C)C)C(=O)N[C@H](C(=O)O)C(C)C [Her2neu.5B3V9] (H-AL[Abu]RWGLLV-OH)
pIC50 [1, 7]: 7.74
induction of peptide-specific CTL [4]: induced peptide-specific CTLs in at least 2 donors
recognition of wild-type peptide and of tumor targets endogenously expressing HER2/neu by induced CTL [5]: no wild-type peptide or endogenous recognition was observed

CC[C@H](C)[C@H](NC(=O)[C@H](CC(C)C)NC(=O)[C@@H](N)CO)C(=O)N[C@@H](CO)C(=O)N[C@@H](C)C(=O)N[C@H](C(=O)N[C@H](C(=O)NCC(=O)N[C@H](C(=O)O)C(C)C)C(C)C)C(C)C
pIC50 [1, 8]: 8.15
pIC50 ([2]; Table XXVII): 7.80
pIC50 ([3]; Table XXVII): 7.70

VLLGVVFGV
pIC50 [1, 8]: 8.62
pIC50 ([3]; Table XXVII): 8.22

CC[C@H](NC(=O)[C@H](CC(C)C)NC(=O)[C@H](C)N)C(=O)N[C@@H](CCCNC(=N)N)C(=O)N[C@@H](Cc1c[nH]c2ccccc12)C(=O)NCC(=O)N[C@@H](CC(C)C)C(=O)N[C@@H](CC(C)C)C(=O)N[C@@H](CC(C)C)C(=O)O [Her2/neu.5.B3]
pIC50 [2, 7]: 7.92

CC[C@H](C)[C@H](NC(=O)[C@H](CCC(=O)O)NC(=O)[C@@H](NC(=O)[C@H](CC(C)C)NC(=O)[C@@H](N)CO)[C@@H](C)O)C(=O)N[C@@H](CC(C)C)C(=O)N[C@@H](CCCCN)C(=O)NCC(=O)NCC(=O)N[C@H](C(=O)O)C(C)C [Her2/neu.144]
pIC50 [2, 7]: 7.66

VLIQRNPQV
pIC50 [1]: 7.26
pIC50 ([2]; Table XXVII): 6.87
pIC50 ([3]; Table XXVII): 6.41

CC(C)C[C@H](NC(=O)[C@H](CO)NC(=O)CNC(=O)[C@H](Cc1ccccc1)NC(=O)[C@@H](NC(=O)[C@@H](N)CCCCN)[C@@H](C)O)C(=O)N[C@@H](C)C(=O)N[C@@H](Cc1ccccc1)C(=O)N[C@H](C(=O)O)C(C)C
pIC50 [1, 8]: 7.46
pIC50 ([2]; Table XXVII): 6.00

CC(C)C[C@H](NC(=O)[C@H](CCC(N)=O)NC(=O)[C@@H](NC(=O)[C@@H](NC(=O)[C@H](CO)NC(=O)[C@@H](NC(=O)[C@H](CC(C)C)NC(=O)[C@@H](N)CS)[C@@H](C)O)[C@@H](C)O)C(C)C)C(=O)N[C@H](C(=O)O)C(C)C
CTL Tumor [5]: 0/4
CTL Wildtype [5]: 1/4
CTL Wildtype [6]: 1/2

CC(C)C[C@H](NC(=O)[C@H](CO)NC(=O)CNC(=O)[C@H](Cc1ccccc1)NC(=O)[C@@H](NC(=O)[C@@H](N)CCCCN)C(C)C)C(=O)N[C@@H](C)C(=O)N[C@@H](Cc1ccccc1)C(=O)N[C@H](C(=O)O)C(C)C [Position V2V9]
induction of peptide-specific CTL [4]: induced peptide-specific CTLs
recognition of wild-type peptide and of tumor targets endogenously expressing HER2/neu by induced CTL [5]: also recognized the target tumor cells

CC[C@H](C)[C@H](NC(=O)[C@H](CCSC)NC(=O)[C@H](Cc1c[nH]c2ccccc12)NC(=O)[C@H](CS)NC(=O)[C@H](CCCCN)NC(=O)[C@@H](NC(=O)[C@H](CCSC)NC(=O)[C@@H](NC(=O)[C@H](CCSC)NC(=O)[C@@H](N)Cc1ccc(O)cc1)[C@@H](C)CC)C(C)C)C(=O)O
CTL Tumor [5]: 0/1
CTL Wildtype [5]: 0/1
CTL Tumor [6]: 2/2
CTL Wildtype [6]: 2/2

CC[C@H](NC(=O)[C@H](CCCCN)NC(=O)[C@@H](NC(=O)[C@H](CCSC)NC(=O)[C@@H](NC(=O)[C@H](CC(C)C)NC(=O)[C@@H](N)Cc1ccc(O)cc1)[C@@H](C)CC)C(C)C)C(=O)N[C@@H](Cc1c[nH]c2ccccc12)C(=O)N[C@@H](CCSC)C(=O)N[C@H](C(=O)O)C(C)C [Her2/neu.952L2B7V10] (H-YLIMVK[Abu]WMV-OH)
pIC50 [1, 7]: 8.14
pIC50 [2, 7]: 7.11
pIC50 [3, 7]: 7.96
induction of peptide-specific CTL [4]: induced peptide-specific CTLs in at least 2 donors
recognition of wild-type peptide and of tumor targets endogenously expressing HER2/neu by induced CTL [5]: no wild-type peptide or endogenous recognition was observed

H-VLLGVVFGV-OH [Her2/neu.665L2V9]
induction of peptide-specific CTL [4]: strong peptide-specific CTL response was observed
recognition of wild-type peptide and of tumor targets endogenously expressing HER2/neu by induced CTL [5]: Peptide-specific CTL activity was maintained in some of the cultures, but no corresponding endogenous recognition was observed
